From PMC12497685, “Anticoronavirus Isoquinoline Alkaloids: Unraveling the Secrets of Their Structure–Activity Relationship” (Influenza and Other Respiratory Viruses, 2025)
Values joined by “and” are separate entries in the source; they are usually repeats but may differ in a detail not shown here. Equal values may be shown once. Read-outs that look alike come from different tables or passages of the source.

Columns and labels:
HCoV‐229E = assay: microbe, parasite or virus in culture; type: cell-based; conditions: n = 1; for inhibition at 10 µM: Human coronavirus 229E, Huh-7, read-out: Protective effects HCoV-229E %
Huh7 cells = conditions: n = 1
[1] = at 10 μM, compared with vehicle control, Huh7 cells
[2] = at 10 μM, compared with vehicle control
[3] = tested at 1 μM due to low solubility in DMSO

Compound	Protective effects HCoV-229E % (HCoV‐229E; [1])	Cytotoxicity to the host Huh7 cells % (Huh7 cells; [2])	inhibition at 10 µM (HCoV‐229E; [1]) [%]	Protective effects HCoV-229E % (HCoV‐229E; [3])	Cytotoxicity to the host Huh7 cells % (Huh7 cells; [3])
COc1cc2c(cc1O)[C@@H]1[C@H](O)[C@@H](OC)C=C3CCN(C2)[C@H]31 [Compound 4, 9‐O‐demethylgalanthine]	— (Not active (insignificant protective effects below 20%))	— (Non-toxic (insignificant cytotoxic effects, below 20%))			
CN1CCC2=CCC3OC(O)c4cc5c(cc4C3C21)OCO5 (stereo not drawn) [Compound 8, oduline]	— (Not active (insignificant protective effects below 20%))	20%			
COc1ccc2c(c1OC)CN(C)CCc1cc3c(cc1C(=O)C2)OCO3 [Compound 29, Allocryptopine]		— (Non-toxic (insignificant cytotoxic effects, below 20%))	< 20		
O[C@H]1[C@H]2c3cc4c(cc3CN3CCC(=C[C@@H]1O)[C@H]23)OCO4 [Compound 9, lycorine]		— (Non-toxic (insignificant cytotoxic effects, below 20%))	< 20		
COC1=C[C@]23CCN(C)[C@H](Cc4ccc(OC)c(O)c42)C3=CC1=O [Compound 59, (−)‐salutaridine]	— (Not active (insignificant protective effects below 20%))	— (Non-toxic (insignificant cytotoxic effects, below 20%))			
COc1cc2c(cc1OC)C1(Cc3ccc4c(c3C1OC(C)=O)OCO4)N(C)CC2 (stereo not drawn) [Compound 39, (−)‐O‐methylfumarophycine]	— (Not active (insignificant protective effects below 20%))	— (Non-toxic (insignificant cytotoxic effects, below 20%))			
(−)‐undulatine [Compound 13]	— (Not active (insignificant protective effects below 20%))	— (Non-toxic (insignificant cytotoxic effects, below 20%))			
COc1ccc2c(c1OC)CN1CCc3cc4c(cc3C1C2)OCO4 (stereo not drawn) [Compound 26, (+)‐canadine]	— (Not active (insignificant protective effects below 20%))	— (Non-toxic (insignificant cytotoxic effects, below 20%))			
(−)‐fumarophycine hydrochloride [Compound 37]	— (Not active (insignificant protective effects below 20%))	— (Non-toxic (insignificant cytotoxic effects, below 20%))			
COc1cc2c(cc1OC)[C@H]1[C@@H](C)c3ccc(OC)c(OC)c3CN1CC2 [Compound 31, (+)‐corydaline]	— (Not active (insignificant protective effects below 20%))	— (Non-toxic (insignificant cytotoxic effects, below 20%))			
COc1cc2c(cc1O)C[C@@H]1NCCc3cc(OC)c(OC)c-2c31 [Compound 58, (+)‐laurotetanine]	— (Not active (insignificant protective effects below 20%))	— (Non-toxic (insignificant cytotoxic effects, below 20%))			
(−)‐O‐methylcaryachine [Compound 35]	— (Not active (insignificant protective effects below 20%))	— (Non-toxic (insignificant cytotoxic effects, below 20%))			
COc1cc2c(cc1OC)-c1c(OC)c(OC)cc3ccnc(c13)C2=O [Compound 61, oxoglaucine]		— (Non-toxic (insignificant cytotoxic effects, below 20%))	< 20		
COc1ccc2c(c1OC)[C@@H]1Cc3cc4c(cc3[C@H](C2)N1C)OCO4 [Compound 36, O‐methylneocarychine]	— (Not active (insignificant protective effects below 20%))	— (Non-toxic (insignificant cytotoxic effects, below 20%))			
COc1cc2c(cc1O)C1(Cc3ccc4c(c3C1O)OCO4)N(C)CC2 (stereo not drawn) [Compound 40, (−)‐fumaritine]				— (Not active (insignificant protective effects below 20%))	— (Non-toxic (insignificant cytotoxic effects, below 20%))
(−)‐berkristine [Compound 21]	65%	— (Non-toxic (insignificant cytotoxic effects, below 20%))			
COC1=CC=C2[C@H]3Cc4ccc(OC)c5c4[C@@]2(CCN3C)[C@H]1O5 [Compound 54, thebaine]		— (Non-toxic (insignificant cytotoxic effects, below 20%))	< 20		
CN1CCc2cc3c(cc2[C@]12Cc1ccc4c(c1C2=O)OCO4)OCO3 [Compound 41, (+)‐fumariline]	— (Not active (insignificant protective effects below 20%))	— (Non-toxic (insignificant cytotoxic effects, below 20%))			

Compound	Protective effects HCoV-229E % (HCoV‐229E; [1])	Cytotoxicity to the host Huh7 cells % (Huh7 cells; [2])	inhibition at 10 µM (HCoV‐229E; [1]) [%]	Protective effects HCoV-229E % (HCoV‐229E; [3])	Cytotoxicity to the host Huh7 cells % (Huh7 cells; [3])
c1cc2c(c3c1C[C@H]1c4cc5c(cc4CCN1C3)OCO5)OCO2 [Compound 49, (−)‐stylopine]	— (Not active (insignificant protective effects below 20%))	— (Non-toxic (insignificant cytotoxic effects, below 20%))			
COc1cc2c(cc1O)[C@@H]1Cc3ccc(OC)c(O)c3CN1CC2 [Compound 33, (−)‐scoulerine]	— (Not active (insignificant protective effects below 20%))	40% and 35%–40%			
COc1cc2c(cc1OC)-c1c(OC)c(OC)cc3c1[C@H](C2)N(C)CC3 [Compound 47, glaucine]		— (Non-toxic (insignificant cytotoxic effects, below 20%))	< 20		
COC1=C[C@@]23CCN(C)[C@@H](Cc4cc(O)c(OC)cc42)C3=CC1=O [Compound 60, (−)‐pallidine]	— (Not active (insignificant protective effects below 20%))	— (Non-toxic (insignificant cytotoxic effects, below 20%))			
COc1cc2c(cc1OC)[C@@H](O)O[C@@H]1CC=C3CCN(C)[C@H]3[C@H]21 [Compound 7, lycorenine]	— (Not active (insignificant protective effects below 20%))	20%			
COc1cc2c(cc1Oc1c3c(cc(OC)c1OC)CCN(C)C3)C(Cc1ccc(O)cc1)N(C)CC2 (stereo not drawn) [Compound 20, (−)‐muraricine]	50%	— (Non-toxic (insignificant cytotoxic effects, below 20%))			
CO[C@@H]1C=C[C@@]23c4cc5c(cc4CO[C@]2(O)CN(C)[C@H]3C1)OCO5 [Compound 5, (+)‐tazettine]	— (Not active (insignificant protective effects below 20%))	— (Non-toxic (insignificant cytotoxic effects, below 20%))			
COc1cc2c(cc1OC)C1Cc3ccc(OC)c(O)c3C(C2)N1C (stereo not drawn) [Compound 24, (−)‐platycerine]	— (Not active (insignificant protective effects below 20%))	— (Non-toxic (insignificant cytotoxic effects, below 20%))			
COc1cc2c(cc1OC)[C@H]1[C@H]3C(=CC[C@H]1OC2=O)CCN3C [Compound 10, homolycorine]		— (Non-toxic (insignificant cytotoxic effects, below 20%))	40		
CN1Cc2c(ccc3c2OCO3)[C@@H]2[C@H]1c1cc3c(cc1C[C@@H]2O)OCO3 [Compound 50, chelidonine]		35% and 35%–40%	< 20		
CCOC1c2c(ccc3c2OCO3)-c2ccc3cc4c(cc3c2N1C)OCO4 (stereo not drawn) [Compound 51, 6‐ethoxydihydrosanguinarine]	— (Not active (insignificant protective effects below 20%))	90% and > 80%			
CCOC1c2c(ccc(OC)c2OC)-c2ccc3cc4c(cc3c2N1C)OCO4 (stereo not drawn) [Compound 52, 6‐ethoxydihydrochelerytrine]	— (Not active (insignificant protective effects below 20%))	80% and > 80%			
COc1ccc2c(c1OC)C(=O)O[C@@H]2[C@H]1c2c(cc3c(c2OC)OCO3)CCN1C [Compound 55, (−)‐narcotine]		20%	< 20		
COc1ccc(Cc2nccc3cc(OC)c(OC)cc23)cc1OC [Compound 53, papaverine]		20%	< 20		
COc1cc2c(cc1OC)C(=O)Cc1ccc3c(c1CN(C)CC2)OCO3 [Compound 45, cryptopine]	— (Not active (insignificant protective effects below 20%))	— (Non-toxic (insignificant cytotoxic effects, below 20%))			
COc1cc2c(cc1O)[C@]1(Cc3ccc4c(c3C1=O)OCO4)N(C)CC2 [Compound 42, (+)‐parfumine]	— (Not active (insignificant protective effects below 20%))	— (Non-toxic (insignificant cytotoxic effects, below 20%))			
N‐methyllaurotetanine [Compound 56]	— (Not active (insignificant protective effects below 20%))	— (Non-toxic (insignificant cytotoxic effects, below 20%))			
O=C1c2ccccc2-c2c3c(cc4ccnc1c24)OCO3 [Compound 62, liriodenine]		— (Non-toxic (insignificant cytotoxic effects, below 20%))	< 20		
